Columns and labels:
[1] = system: cloned mammalian (mSlo or hSlo) BK channels heterologously expressed in Xenopus oocytes; experiment: BK-mediated outward current, two-electrode voltage clamp in Xenopus oocytes; format: cell-based; settings: 10 μM; at least 5 oocytes
Description: (§1) The ability of the compound of Formula II to open BK channels and increase whole-cell outward (K^+) BK-mediated currents was assessed under voltage-clamp conditions by determining their ability to increase cloned mammalian (mSlo or hSlo) BK-mediated outward current heterologously expressed in Xenopus oocytes [Butler, A., et al., Science, 261, pp. 221-224 (1993); and Dworetzky, S. I., et al., Mol. Brain Res., 27, pp. 189-193 (1994)]. The two BK constructs employed represent nearly structurally identical homologous proteins, and have proven to be pharmacologically identical in our tests. To isolate BK current from native (background, non-BK) current, the specific and potent BK channel-blocking toxin iberiotoxin (IBTX) [Galvez, A., et al., J. Biol. Chem, 265, pp. 11083-11090 (1990)] was employed at a supramaximal concentration (50 nM). The relative contribution of BK channels current to total outward current was determined by subtraction of the current remaining in the presence of IBTX (non-BK current) from the current profiles obtained in all other experimental conditions (control, drug, and wash). […] The compound of Formula II was shown in at least 5 oocytes at a concentration of 10 μM to increase BK current to 170% of control of IBTX-sensitive current. […]

[2] = system: non-BK native currents in the oocytes; experiment: Non-BK native currents in oocytes (current remaining in presence of IBTX); format: cell-based, Xenopus; settings: at the tested concentration
Description: as §1

[3] = system: focal cerebral ischemia (MCAO) in the Wistar rat; experiment: Focal stroke model, permanent MCA/CCA occlusion; format: in vivo; settings: 0.3 mg/kg intravenously, single bolus two hours after MCAO; vs vehicle-treated control; 24 hours after MCAO
Description: To determine the ability of the compounds of the present invention to reduce cell loss resulting from neuronal ischemia, a standard focal cerebral ischemia is induced by permanent occlusion of the left middle cerebral artery (MCA) and common carotid artery (CCA) with one hour occlusion of the right CCA in the Wistar rat. The surgeries are performed using the sub-temporal approach of A. Tamura, et al., J. Cereb. Blood Flow Metab., 1, pp. 53-60, (1981) and its modifications [K. Osborne, et al., J. Neurol Neurosurg. Psychiatry, 50, pp. 402-410 (1987) and S. Menzies, et al., Neurosurgery, 31, pp. 100-107, (1992)].
The compound of Formula II was evaluated in the focal stroke model involving permanent occlusion of the left MCA (MCAO) and CCA (CCAO) and temporary occlusion of the right CCA in the Wistar rat [Gribkoff, et al. Nature Med. 7, pp. 471-477 (2001)]. This procedure results in a reliably large neocortical infarct volume that is measured by means of vital dye exclusion in serial slices through the brain 24 hours after MCAO. In the present test, compounds were administered using an i.v. or i.p. route of administration two hours after occlusion.

[4] = system: rat traumatic brain injury (TBI) model; experiment: Rat traumatic brain injury (lateral fluid percussion) model, intracranial pressure (ICP) measurement; format: in vivo; settings: 0.08 mg/kg
Description: To determine the ability of the compounds of the present invention to decrease the amount of neuronal damage following head injury, a standard model of traumatic brain injury was employed. The rat traumatic brain injury (TBI) model is used to evaluate compounds for effectiveness in reversing or preventing the deleterious effects of a concussion-like injury. In general, rats in this model were anesthetized, a craniotomy is performed (surgical opening of the skull), and then saline was injected into the opening to produce a precise pulse of increased intracranial pressure (commonly called a fluid percussion injury). Animals were administered compound at the specified doses at 15 minutes following trauma. Animals were euthanized 48 hours post TBI.
Moderate diffuse brain injury (defined by McIntosh, et al. Neuroscience, 28:233-44 (1989)) was induced by a fluid-percussion device. The apparatus produces contusion via the rapid injection of a saline pulse [˜2.1 to 2.7 atmospheres of pressure (atm)] at a constant duration (21-23 millisecond) into a closed cranial cavity. The saline pulse results in the brief displacement and deformation of the underlying cortex. This model is thought to mimic the clinical situation where a patient experiences a concussion-like injury characterized by brief neurological and systemic physiological alterations without severe structural damage. The fluid percussion device produces brain injury without directly impacting the brain. Diffuse brain injury is achieved by the release of a weighted (4.8 kg) metal pendulum from a predetermined height (McIntosh, et al 1989) that strikes a cork-covered piston at the end of a Plexiglass cylindrical reservoir filled with isotonic saline. Varying volumes of saline are injected into the closed cranial cavity producing a pulse of increased intracranial pressure (ICP). Varying the height of the pendulum controls the magnitude of the injury.
In an alternate method, the severity of brain damage was assessed by Intracranial Pressure (ICP) measurement at various intervals post fluid percussion up to 24 hours. In brief, prior to the fluid percussion a burr hole was made 1 mm from the sagittal suture, centered over the right parietal cortex 5 mm from lambda, 5 mm from bregma. Following fluid percussion injury, the trauma cap and cranioplastic cement were removed. In order to achieve adequate ICP values, while still under anesthesia, the craniotomy cap was re-inserted in its original location post fluid percussion. Pre-cut sterile foil was also placed over the craniotomy cap. Cranioplastic cement was placed over the foil to seal the brain cavity. To obtain continuous ICP measurements the probe was inserted into the burr hole and fixed by cranioplastic cement, the animal was then sutured (using 3-0) and the rat was placed in a Hopper cage to allow for free movement during the experiment. Next, the ICP transducer was connected to a Codman ICP monitor for continuous ICP measurements up to 24 hrs post-TBI or post-sham injury. During this time the animal had regular access to water and food. At 24 hrs post-TBI the experiment was terminated and animals were euthanatized by sodium pentobarbital overdose (130 mg/kg; i.p.).
These experiments consist of a sham-vehicle group (SV), a TBI-vehicle group (TV), sham-drug treated groups (SD; 0.08 mg/kg compound of Example 14 [dose equivalent of 0.05 mg/kg compound of Formula (S)-II]) and TBI-drug treated groups (TD; 0.08 mg/kg compound of Example 14). Each sham group acted as a control for the corresponding TBI group. All of the animals underwent anesthesia and surgery. In the TBI groups, brain injury was induced using the lateral fluid-percussion model. Drug treatment was initiated at 15 minutes post-TBI or sham-injury. […] Five minutes post injury absolute ICP (raw data) increased 6.8 mmHg units in TV animals compared to SV animals (SV-5.55 vs. TV-12.35). […]

[5] = Rat blood levels of compound (S)-II after prodrug administration; format: in vivo, male Sprague-Dawley rats; settings: intravenous bolus, dose equivalent to 1 mg/kg of (S)-II; whole blood; LC/MS/MS; n=3 rats/timepoint
Description: The compound of Formula (S)-II or a prodrug of Formula I was administered intravenous bolus to male Sprague-Dawley rats (n=3 rats/timepoint) at a target dose equivalent to 1 mg/kg of the compound of Formula (S)-II. At T=0.25, 1 and 2 hours post-dose, whole blood samples were collected and extracted with acetonitrile. Blood extracts were analyzed by LC/MS/MS for levels of the compound of Formula (S)-II.

[6] = cited from earlier work
[7] = Solubility (qualitative statements); format: physicochemical

## COc1ccc(Cl)cc1C1(F)C(=O)Nc2cc(C(F)(F)F)ccc21 (racemic) [compound of Formula II, 3-(5-chloro-2-methoxyphenyl)-1,3-dihydro-3-fluoro-6-(trifluoromethyl)-2H-indol-2-one]
[1]
  BK current, % of control of IBTX-sensitive current: 170 % of control
[2]
  effect on non-BK native currents in the oocytes: did not effect non-BK native currents
[3]
  reduction of cortical infarct volume: about 28%

## COc1ccc(Cl)cc1[C@]1(F)C(=O)N(COP(=O)([O-])[O-])c2cc(C(F)(F)F)ccc21.[K+].[K+] [Example 14, (S)-Phosphoric acid mono-[3-(5-chloro-2-methoxy-phenyl)-3-fluoro-2-oxo-6-trifluoromethyl-2,3-dihydro-indol-1-ylmethyl] ester, potassium salt]
[4]; 30 minutes post injury
  intra-animal mean ICP reduction, TD: −2.85 mmHg
[4]; 45 minutes post injury
  intra-animal mean ICP reduction, TD: −3.95 mmHg
[4]; 45 minutes, 60 minutes, 2, 3, 4 and 24 hours post-TBI
  absolute ICP, TD vs TV, significance: significantly different from TV
[4]; 60 min post injury
  intra-animal mean ICP reduction, TD: −4.5 mmHg
[4]; 60 minutes post injury (45 minutes post-drug injection)
  reduction of absolute ICP, TD vs TV: 3.1 mmHg units
[4]; 2 hours post injury
  intra-animal mean ICP reduction, TD: −4.3 mmHg
[4]; 3 hr post injury
  intra-animal mean ICP reduction, TD: −4.3 mmHg
[4]; 4 hours post injury
  intra-animal mean ICP reduction, TD: −4.15 mmHg
[4]; 4 hours post-sham injury
  intra-animal mean ICP reduction, sham-drug group (SD): −2.1 mmHg
[4]; 24 hours post injury
  intra-animal mean ICP reduction, TD: −3.05 mmHg
[4]; sham injury, until 4 hours post-sham injury
  ICP, SD vs SV, significance: did not significantly differ from SV

## (S)-Phosphoric acid mono-[3-(5-chloro-2-methoxy-phenyl)-3-fluoro-2-oxo-6-trifluoromethyl-2,3-dihydro-indol-1-ylmethyl] ester, mono tetrabutylammonium salt [Example 2]
[5]
  Truncated Blood AUC(0.25-2 hr) Compound of Formula (S)-II: 188 ng·h/mL

## COc1ccc(Cl)cc1[C@]1(F)C(=O)Nc2cc(C(F)(F)F)ccc21 [Compound of Formula (S)-II, (3S)-(+)-(5-chloro-2-methoxyphenyl)-1,3-dihydro-3-fluoro-6-(trifluoromethyl)-2H-indol-2-one]
[6]
  aqueous solubility: low aqueous solubility

## COc1ccc(Cl)cc1[C@]1(F)C(=O)N(COP(=O)([O-])[O-])c2cc(C(F)(F)F)ccc21.[Mg+2] [Example 18, (S)-Phosphoric acid mono-[3-(5-chloro-2-methoxy-phenyl)-3-fluoro-2-oxo-6-trifluoromethyl-2,3-dihydro-indol-1-ylmethyl] ester, magnesium salt]
[7]
  solubility in water: marginally soluble in water
[7]; relative to water
  solubility in organic solvents: more soluble in organic solvents

Source: patent US20030195169A1, “Phosphate prodrugs of fluorooxindoles” (priority 2002, published 2003)
